Test [1] has as its target T1, AeOBP22 (Aedes aegypti, UniProt Q1HRL7).
T1 construct: The mature form of AeOBP22 lacking the N-terminal signal peptide was expressed and purified as previously described; made in house
T1 sequence (Q1HRL7 17-138): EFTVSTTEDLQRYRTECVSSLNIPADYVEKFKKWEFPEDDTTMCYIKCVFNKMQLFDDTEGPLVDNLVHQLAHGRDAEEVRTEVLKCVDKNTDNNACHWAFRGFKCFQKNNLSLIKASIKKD
The experiment in a line: DAF based competition binding assay (recovery of DAF fluorescence by fatty acids). The note with it: for Kd: pH 8.0 (HEPES 50 mM pH 8.1), 25 °C, ± s.d., n = 3. Here is the method:
Binding affinities were determined by monitoring the recovery of DAF florescence as a function of fatty acid concentration. Stock solutions of fatty acid were made by dissolving the fatty acid in 100% DMSO, and then making a 1:1000 dilution into HEPES (50 mM pH 8.1). Samples were vortexed prior to each titration point. The protein/DAF solution contained fixed concentrations of DAF (100 nM) and AeOBP22 (1000 nM).
As there is a single binding site for the fatty acid and the effect of fluorescence quenching can be completely reversed by increasing concentrations of fatty acids, we concluded that the fatty acid is directly competitive with binding of the DAF reporter. Therefore, the term for KD in Eq. 2 can be replaced with Eq. 3.3 Kapp=KD(1+I/KI) where I is the concentration of the competitor and KI is the dissociation constant of the competitor. The emission maxima were fit using Eq. 2 substituted into Eq. 1, with the concentration of the protein and DAF fixed at their known concentrations.

Test [2] has as its target T1, AeOBP22. Briefly: NMR 1H-15N HSQC ligand screening / chemical shift perturbation. The note with it: protein 100 μM, sodium phosphate pH 6.5; for binding to AeOBP22 judged by NMR: result in words. The format is binding. Here is the method: NMR experiments were performed at 25 °C on a either a Varian 900 MHz DD2, Varian INOVA 600 MHz or Bruker Avance Neo 600 MHz spectrometer. Samples for NMR were dissolved in sodium phosphate (20 mM, pH 6.5) and 90% H2O/10% D2O, with DSS (4,4-dimethyl-4-silapentane-1-sulfonic acid) (80 μM) added as an internal reference,[90]. For ligand screening, protein concentration was 100 μM and ligands were added to a concentration of 200–500 μM. For chemical shift assignments, relaxation rate measurements and structure calculations, protein concentrations were in the 400–700 μM range. All NMR experiments were collected using non uniform sampling methods[91] using the Poisson-gap sampling schemes implemented by Hyberts et al.[92] with a sampling density of 25–50%. Data were processed using the istHMS package v2111[93],[94] in combination with NmrPipe[95] and analyzed using Ccpnmr Analysis v 2.4.2[96].
Chemical shift assignments for the complex with arachidonic acid and the backbone assignments for the apo-protein were previously reported. Backbone ^1H, ^15N, ^13Cα and ^13Cβ assignments for nonadecanoic, linoleic acid (pH 4.5 and pH 6.5), and decanoic acids were made in the same way. All other backbone amide assignments were made by following chemical shift trajectories as a function of ligand concentration or chain length. Normalized chemical shift differences are reported as[97],[98]1 Δδ=(ΔδH^2+0.14∗ΔδN^2)

Test [3] addresses T1, AeOBP22. The experiment in a line: DAF based competition binding assay (recovery of DAF fluorescence by fatty acids).
The target of test [4] is T1, AeOBP22. The experiment in a line: DAF fluorescence quenching titration with AeOBP22 (direct binding). The note with it: for Kd: direct titration, fluorescence quenching at 513 nm, n = 7. The protocol:
All fluorescence experiments were recorded at 25 °C on a Horiba Fluorolog 3–1–1 spectrofluorometer. DAF spectra were acquired using an excitation wavelength of 490 nm and the emission recorded between 500 and 560 nm at 1 nm intervals with an integration time of 1 s and slit widths of 2 nm. Stock solutions of DAF (Thermo Fisher, Batch D-109) were prepared in methanol with potassium hydroxide (0.2 M) and the concentration measured by UV spectroscopy using an extinction coefficient of 88000 M^−1 cm^−1 at 497 nm provided in the certificate of analysis. A 1:100 dilution was made into HEPES (50 mM, pH 8.1) and the sample vortexed and checked by UV to verify the DAF concentration. A solution of DAF (~80–100 nM) was titrated with increasing AeOBP22 to a final concentration of ~4 μM. The fluorescence intensity (cps) at the emission maxima (513 nm) was plotted against the total concentration of AeOBP22 and the KD for DAF was determined by fitting the raw fluorescence intensity for each replicate to Eq. (1):2 Fi=F0(1−([PT+LT+KD]−[PT+LT+KD]^2−4PTLT)/2LT)−Fmin where Fi is the measured fluorescence, F0 is the initial fluorescence in the absence of any protein, PT is the total protein, LT is the total concentration of DAF, and Fmin is the residual fluorescence after maximal quenching by the protein.

The target in test [5] is T1, AeOBP22. The experiment in a line: 1-NPN fluorescent reporter binding. Conditions: result in words.
Setting [6] is: DAF competition, DAF 100 nM, protein 1000 nM, read-out: KD (nM) for binding of fatty acids to AeOBP22.
[7] abbreviates: DAF competition, DAF 100 nM, protein 1000 nM, pH 8.0, n = 3, read-out: KI (dissociation constant of the competitor).
The mark [8] stands for this setting: KD (nM) for binding of fatty acids to AeOBP22, DAF competition, DAF 100 nM, protein 1000 nM.

Values joined by “and” are separate entries in the source; they are usually repeats but may differ in a detail not shown here. Equal values may be shown once. Read-outs that look alike come from different tables or passages of the source.

Turning to `CCCCCCCCCCCCCCCC(=O)O` [C16:0, palmitic acid], at AeOBP22 [1] (setting [6]), the Kd came out at 689 ± 89 nM.

In the case of `CCCCCCCC/C=C\CCCCCCCC(=O)OC[C@@H](O)COP(=O)(O)O` [C16-LPA, lyso-phosphatidic acid], on AeOBP22 [2], the “binding to AeOBP22 judged by NMR” value is listed as “failed to identify”.

Regarding `CC/C=C\C/C=C\C/C=C\CCCCCCCC(=O)O` [αC18:3, a-Linoleic acid C18:3 (D9,12,15)], the Ki on AeOBP22 [3] (pH 5, n = 2, read-out: KI (dissociation constant of the competitor) at pH 5) was determined as 0.042 ± 0.014 µM; at AeOBP22 [1] (setting [7]) it was 0.052 ± 0.008 µM. The Kd on AeOBP22 [3] (pH 5.0, ± s.d., n = 2, read-out: KD (nM) for binding of fatty acid to AeOBP22 at pH 5.0) was 42 ± 14 nM; on AeOBP22 [3] (pH 6.5 as printed, read-out: binding affinity at pH 6.5 (as printed in text)), 52 ± 8 nM; on AeOBP22 [1] (setting [6]), 52 ± 8 nM.

In the case of `CCCCCC/C=C\CCCCCCCC(=O)O` [C16:1, palmitoleic acid], the Kd on AeOBP22 [1] (setting [6]) was determined as 175 ± 41 nM.

For the molecule `CC(C)=CCC/C(C)=C/CO` [geraniol], at AeOBP22 [2], the “ligand concentration at which large NMR chemical shift changes occur” value is more than 1 mM and the “binding to AeOBP22 judged by NMR” value is on record as “binding is weak”.

In the case of Eicosenoic acid [C20:1], the Kd at AeOBP22 [1] (setting [6]) turned out to be 102 ± 16 nM. Further, the Ki on AeOBP22 [1] (setting [7]) was determined as 0.102 ± 0.016 µM.

Consider `CCCCC/C=C\C/C=C\CCCCCCCC(=O)O` [C18:2, linoleic acid], for which the Ki at AeOBP22 [1] was found to be 0.104 ± 0.03 µM. Further, at AeOBP22 [1] (setting [8]), the Kd is 104 ± 30 nM.

On to `CCCCC/C=C\C/C=C\C/C=C\C/C=C\CCCC(=O)O` [C20:4, arachidonic acid], for which the “binding to AeOBP22 judged by NMR” value at AeOBP22 [2] was “binding occurs with high affinity”. The inhibition constant (Ki) at AeOBP22 [1] is 0.286 ± 0.029 µM. On AeOBP22 [1] (setting [8]), the Kd worked out at 286 ± 29 nM.

On to `O=Cc1ccccc1` [benzaldehyde], for which, on AeOBP22 [2], the “ligand concentration at which large NMR chemical shift changes occur” value was more than 1 mM and the “binding to AeOBP22 judged by NMR” value is “binding is weak”.

`CCCCCCCC/C=C\CCCCCCCC(=O)O` [C18:1, Oleic acid]: the Kd on AeOBP22 [1] (setting [6]) is 85 nM and 84 nM.

As for `CCCCC/C=C\C/C=C\C/C=C\CCCCC(=O)O` [γC18:3, g-Linoleic acid C18:3 (D6 ,9,12)], the Kd at AeOBP22 [1] (setting [6]) was determined as 111 ± 27 nM. For the same molecule, the Ki on AeOBP22 [1] (setting [7]) came to 0.111 ± 0.027 µM.

With `CC(C)=CCCC(C)CCO` (centres unmarked) [citronellol], on AeOBP22 [2], the “ligand concentration at which large NMR chemical shift changes occur” value is reported as more than 1 mM and the “binding to AeOBP22 judged by NMR” value is “binding is weak”.

Regarding `CCCCCCCCCCCC(=O)Nc1ccc2c(c1)C(=O)OC21c2ccc(O)cc2Oc2cc(O)ccc21` [DAF, 5-(N-dodecanoyl)-amino-fluorescein], the Kd stood at 1190 ± 261 nM on AeOBP22 [4] (HEPES pH 8.1, 25 °C, ± s.d., read-out: KD (nM) for binding of DAF to AeOBP22) and 1190 nM at AeOBP22 [4] (read-out: KD of DAF for AeOBP22). For the same molecule, the “quenching of DAF fluorescence upon addition of AeOBP22 (reduction from maximal intensity)” value at AeOBP22 [4] (emission maximum 513 nm) is ~ 75%.

In the case of `c1ccc(Nc2cccc3ccccc23)cc1` [1-NPN], the “binding of 1-NPN reporter to AeOBP22” value at AeOBP22 [5] is listed as “bound with low affinity”.

With `O=C(O)CCCCCCCCCCCCCCCO` [C16-OH, 16-hydroxy-hexadecanoic acid], the “competition for binding of the fluorescent reporter (DAF)” value at AeOBP22 [1] (result in words) is on record as “does not compete”.

One may read the Ki as a measure of affinity in units of concentration, obtained from inhibition or displacement.

The values are drawn from publication PMC7039890, “Aedes aegypti Odorant Binding Protein 22 selectively binds fatty acids through a conformational change in its C-terminal tail” (Scientific Reports, 2020).
